Data on one molecule can be found in patent US20200354348A1, “SEMISYNTHETIC AURONES AND METHODS OF USE THEREOF” (University of Kentucky Research Foundation, priority 2018, published 2020).

Holding throughout (format): cell-based
The test system of one test is NCI-H522. As to the kind of experiment: NCI60 screening. The note with it: Homo sapiens, Non-Small Cell Lung Cancer.
The next test relates to HEK193T cells. The test can be described thus: In vivo microtubule assembly assay in cells. The method, then:
In vivo microtubule assembly assay. The amount of insoluble polymerized microtubules and soluble tubulin dimers in cells after exposure to compounds were detected following the method by Blagosklommy et al. (Cancer research 55, 4623-4626 (1995). Cells were seeded in 6-well plate at 50% confluency and cultured overnight. DMSO or compounds were added and the cells were incubated for additional 6 hours. The medium was removed and cells were washed with PBS three times followed by addition of lysis buffer [20 mM Tris-HCl (pH 6.8), 1 mM MgCl2, 2 mM EGTA, 20 μg/mL aprotinin, 20 μg/mL leupeptin, 1 mM PMSF, 1 mM orthovanadate, and 0.5% NP40]. The lysates were centrifuged at 12000 g for 10 min to obtain supernatants and pellets, where were mixed with loading buffer and boiled. Then standard western blot analysis against β-tubulin was performed as described by our previous work. (ACS Chem Biol 8, 796-803, doi:10.1021/cb3005353 (2013)).

Another test has as its system EKVX. As to the kind of experiment: NCI60 screening. The following applies: Homo sapiens, Non-Small Cell Lung Cancer.
The test system of the next test is Jurkat. The test can be described thus: IC50 in leukemia cell lines. The following applies: Homo sapiens, T-ALL.
For another test, the system named is A549(ATCC). As to the kind of experiment: NCI60 screening. The note with it: Homo sapiens, Non-Small Cell Lung Cancer.
In a further test the test system is RPMI58402. The test can be described thus: IC50 in leukemia cell lines. The following applies: RPMI58402, T-ALL.
Another test has as its system LS174T cells. The test can be described thus: Proliferation inhibition assay, LS174T. The note with it: Homo sapiens, LS174T, Table 2. The method, then:
(§1) Cell Culture. LS174T (colon cancer cells), PC-3 (prostate cancer cells), MCF-7 (beast) and A549 (lung) were cultured in the medium recommended by American Type Culture Collection at 37° C. with 5% CO2 atmosphere in a water jacketed incubator. Ovcar-8 and NCI/ADR-RES are gifts from Dr. Markos Leggas. Alpha-tubulin antibodies, TRITC-conjugated anti-rabbit antibody.
(§2) Proliferation inhibition assay. Cancer cells were seeded into 24-well plates at a density of 20,000 cells per well in 1 mL of culture medium and cultured overnight at 37° C. Compounds and the vehicle control DMSO were added to the cells. After 6 days, medium was removed and 100 μL of trypsin was added. Then the cells resuspended in pbs were counted by Vi-CELL XR 2.03 (Beckman Coulter, Inc. USA). The ratio R of the number of viable cells in the compound treatment group to the number of viable cells in DMSO treatment group was taken as relative growth, and the percentage growth inhibition was calculated as: (1−R)*100. For initial testing, compounds were added to the cells at a final concentration 10 μM. Active compounds at 10 μM would be tested at lower concentrations.

A further test relates to NCI-BL2009. As to the kind of experiment: IC50 in leukemia cell lines. The note with it: NCI-BL2009, Normal B-Lymphoblast.
A further test has as its system Nalm-16. As to the kind of experiment: IC50 in leukemia cell lines. The following applies: NALM16; Nalm-16, B-ALL.
A further test relates to MOLT-4. As to the kind of experiment: IC50 in leukemia cell lines. The following applies: Homo sapiens; Molt-4, T-ALL.
For another test, the system named is CCRF-CEM. As to the kind of experiment: IC50 in leukemia cell lines. The following applies: Homo sapiens, T-ALL.
In a further test the test system is OVCAR-5. As to the kind of experiment: NCI60 screening. The note with it: Homo sapiens, Ovarian Cancer.
A further test concerns UACC-257. The test can be described thus: NCI60 screening. The note with it: Homo sapiens, Melanoma.
The test system of the next test is Cdc2 (CDK1). As to the kind of experiment: Cdc2 (CDK1) phosphorylation (FIG. 7B).
Test [1] concerns PC-3, LS174T and HEK293T cells. The test can be described thus: Cell morphology. The note with it: 300 nM, 6 h.
A further test relates to MALME-3M. As to the kind of experiment: NCI60 screening. The note with it: Homo sapiens, Melanoma.
In the next test the test system is OVCAR-4. As to the kind of experiment: NCI60 screening. The note with it: Homo sapiens, Ovarian Cancer.
Another test relates to NCI-H322M. The test can be described thus: NCI60 screening. The following applies: Homo sapiens, Non-Small Cell Lung Cancer.
Test [2] deals with PC-3, LS174T, A549, MCF-7, Ovcar-8 and NCI/ADR-RES. As to the kind of experiment: Inhibition of various cancer cell lines, five-day treatment (FIG. 2A). The following applies: 120 h. On the procedure: The inhibitory effects of aurones 4a and 4r were determined on various cancer cell lines including prostate cancer PC-3, colorectal cancer LS174T, lung cancer A549, breast cancer MCF-7, and ovarian cancer Ovcar-8 and NCI/ADR-RES (Tables 1-3, FIG. 2A).
as §1
as §2, with “After 6 days, medium was removed and 100 μL of trypsin was added.” left out

In the case of `CCn1cc(/C=C2\Oc3cc(OCC#N)ccc3C2=O)c2cc(OC)ccc21` [Aurone 4a, (Z)-2-((2-((1-Ethyl-5-methoxy-1H-indol-3-yl)methylene)-3-oxo-2,3-dihydrobenzofuran-6-yl)oxy)acetonitrile], the GI50 (usually the concentration giving 50% growth inhibition) was 3130 nM with NCI-H522; 2730 nM in the test on EKVX; 5100 nM in the test on A549(ATCC); 2520 nM in the test with OVCAR-5; 67100 nM in the test on UACC-257; above 100000 nM in the test on MALME-3M. Moreover, the GI50 in the test on OVCAR-4 is 19000 nM; in the test on NCI-H322M, 1430 nM. Moreover, the “tubulin polymerization in cells” value in the test with HEK193T cells is given as “decreased tubulin polymerization”. The IC50 (commonly the point on the concentration scale where inhibition reaches its midpoint) in the test with Jurkat came to 273 nM; in the test on RPMI58402, 301 nM; in the test on NCI-BL2009, 1250 nM; in the test on Nalm-16 it was 272 nM; with MOLT-4, 241 nM; in the test on CCRF-CEM, 244 nM. Further, the IC50 in [2] is 50 to 300 nM. In the test with LS174T cells (100 nM), the inhibition – broadly, the relative decrease from the control value, in per cent – at 0.1 µM amounted to 11 ± 11%. The molecule further returned an inhibition at 0.3 µM in the test with LS174T cells (300 nM) of 93 ± 14%. Besides, in the test on LS174T cells (1 μM), 1 µM produced 97 ± 0.4% inhibition. Testing at 10 µM in the test with LS174T cells (10 μM) gave an inhibition of 96 ± 0.8%. For the same molecule, the “Cdc2 (CDK1) phosphorylation at tyrosine 15” value in the test on Cdc2 (CDK1) is on record as “decreasing phosphorylation at tyrosine 15”. Further, the cell morphology entry in [1] is “Cell morphologies were changed”.
